For two compounds, carcinogen call results are on record in PubChem BioAssay AID1259411 (Chemical Carcinogenesis Research Information System (CCRIS), 2018).

Activity calls are given as the source filed them. No rule for the calls is given here.

The series has as its system rodent carcinogenicity bioassays, tumor incidence. Briefly: CCRIS carcinogenicity studies. A digest of the protocol:
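Archive of carcinogenicity, mutagenicity, tumor promotion and tumor inhibition results drawn from journals, NCI reports and other sources, expert-reviewed; covers 1985-2011 and is no longer updated.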

As to `Cc1ccccc1N`, the carcinogen call reads like this: (Species: MOUSE, Strain/Sex: B6C3F1/FEMALE, Route: ORAL, Dose: 0, 1000, 3000 PPM IN DIET FOR 103 WK, Dose: 0, 1000, 3000 PPM IN DIET FOR 103 WK, Tumor Site: Type of Lesion: LIVER: HEPATOCELLULAR CARCINOMA OR HEPATOCELLULAR ADENOMA) “active; positive”; (Species: MOUSE, Strain/Sex: B6C3F1/MALE, Route: ORAL, Dose: 0, 1000, 3000 PPM IN DIET FOR 102-103 WK, Dose: 0, 1000, 3000 PPM IN DIET FOR 102-103 WK, Tumor Site: Type of Lesion: BLOOD VESSELS: HEMANGIOMA OR HEMANGIOSARCOMA) “active; positive”; (Species: MOUSE, Strain/Sex: CD-1/MALE,FEMALE, Route: ORAL, Dose: 0, 16000, 32000 MG/KG FOR 3 MO, THEN 0, 8000, 16000 MG/KG FOR 15 MO, Dose: 0, 16000, 32000 MG/KG FOR 3 MO, THEN 0, 8000, 16000 MG/KG FOR 15 MO, Tumor Site: Type of Lesion: BLOOD VESSELS: HEMANGIOMA, HEMANGIOSARCOMA) “active; positive”; (Species: RAT, Strain/Sex: CD-1/MALE, Route: ORAL, Dose: 0, 8000, 16000 MG/KG FOR 3 MO, THEN 0, 4000, 8000 MG/KG FOR 15 MO, Dose: 0, 8000, 16000 MG/KG FOR 3 MO, THEN 0, 4000, 8000 MG/KG FOR 15 MO, Tumor Site: Type of Lesion: INTEGUMENTARY SYSTEM (SUBCUTANEOUS TISSUE): FIBROMA, FIBROSARCOMA) “active; positive”; (Species: RAT, Strain/Sex: F344/FEMALE, Route: ORAL, Dose: 0, 3000, 6000, PPM IN DIET FOR 104 WK (STUDY DURATION: 104 WK), Dose: 0, 3000, 6000, PPM IN DIET FOR 104 WK (STUDY DURATION: 104 WK), Tumor Site: Type of Lesion: SPLEEN OR PERITONEUM: SARCOMA) “active; positive”; (Species: RAT, Strain/Sex: F344/FEMALE, Route: ORAL, Dose: 0, 3000, 6000 PPM IN DIET FOR 104 WK, Dose: 0, 3000, 6000 PPM IN DIET FOR 104 WK, Tumor Site: Type of Lesion: SPLEEN: ANGIOSARCOMA, SARCOMA (NOS) OR ANGIOSARCOMA OR OSTEOSARCOMA, URINARY BLADDER: TRANSITIONAL CELL CARCINOMA, TRANS) “active; positive”. Further, the carcinogen call is “active; positive” (Species: RAT, Strain/Sex: F344/MALE, Route: ORAL, Dose: 0, 3000, 6000 PPM IN DIET FOR 101-104 WK, Dose: 0, 3000, 6000 PPM IN DIET FOR 101-104 WK, Tumor Site: Type of Lesion: INTEGUMENTARY SYSTEM (SUBCUTANEOUS TISSUE): FIBROMA, SPLEEN: FIBROMA, ANGIOSARCOMA, MULTIPLE ORGANS OR TUNICA VAGINALIS:, Tumor Site: Type of Lesion: INTEGUMENTARY SYSTEM (SUBCUTANEOUS TISSUE): FIBROMA, SPLEEN: FIBROMA, ANGIOSARCOMA, MULTIPLE ORGANS OR TUNICA VAGINALIS:); “active; positive” (Species: RAT, Strain/Sex: F344/MALE, Route: ORAL, Dose: 0, 3000, 6000 PPM IN DIET FOR 104 WK (STUDY DURATION: 104 WK), Dose: 0, 3000, 6000 PPM IN DIET FOR 104 WK (STUDY DURATION: 104 WK), Tumor Site: Type of Lesion: SPLEEN OR PERITONEUM: SARCOMA); “active; positive” (Species: RAT, Strain/Sex: F344/MALE, Route: ORAL, Dose: 4.0 G/KG IN DIET FOR 72 WK (TOTAL DOSE 0.22 MOL/RAT), Tumor Site: Type of Lesion: SPLEEN: FIBROMA, INTEGUMENTARY SYSTEM (SKIN): FIBROMA, MAMMARY GLAND: FIBROADENOMA, ADENOCARCINOMA, PERITONEAL CAVITY: M, Tumor Site: Type of Lesion: SPLEEN: FIBROMA, INTEGUMENTARY SYSTEM (SKIN): FIBROMA, MAMMARY GLAND: FIBROADENOMA, ADENOCARCINOMA, PERITONEAL CAVITY: M).

Take `CCCCNC(=O)OCC#CI`: the carcinogen call is “inactive; negative” (Species: Mouse, Strain/Sex: CD-1/Female (50/Group), Route: Oral, Dose: 0, 20, 50, 150 mg/kg/day of 97% 3-iodo-2-propynyl butyl carbamate in diet for 78 wk, study duration 78 wk, Dose: 0, 20, 50, 150 mg/kg/day of 97% 3-iodo-2-propynyl butyl carbamate in diet for 78 wk, study duration 78 wk); “inactive; negative” (Species: Mouse, Strain/Sex: CD-1/Male (50/Group), Route: Oral, Dose: 0, 20, 50, 150 mg/kg/day of 97% 3-iodo-2-propynyl butyl carbamate in diet for 78 wk, study duration 78 wk, Dose: 0, 20, 50, 150 mg/kg/day of 97% 3-iodo-2-propynyl butyl carbamate in diet for 78 wk, study duration 78 wk); “inactive; negative” (Species: Rat, Strain/Sex: Sprague-Dawley/Female (50/group), Route: Oral, Dose: 0, 20, 40, 80 mg/kg/day of 97% 3-iodo-2-propynyl butyl carbamate in diet for 104 wk, study duration 104 wk, Dose: 0, 20, 40, 80 mg/kg/day of 97% 3-iodo-2-propynyl butyl carbamate in diet for 104 wk, study duration 104 wk); “inactive; negative” (Species: Rat, Strain/Sex: Sprague-Dawley/Male (50/group), Route: Oral, Dose: 0, 20, 40, 80 mg/kg/day of 97% 3-iodo-2-propynyl butyl carbamate in diet for 104 wk, study duration 104 wk, Dose: 0, 20, 40, 80 mg/kg/day of 97% 3-iodo-2-propynyl butyl carbamate in diet for 104 wk, study duration 104 wk).
